Patent US9932637B2, “Genetic polymorphisms associated with cardiovascular disorders and drug response, methods of detection and uses thereof” (CELERA CORPORATION, priority 2003, dated 2018)

System: patients with prior myocardial infarction (CARE study)
Test: CARE: association of SNPs with pravastatin treatment in cardiovascular events prevention (logistic regression, odds ratio pravastatin vs placebo by genotype; Table 8)
Type: in vivo, human
Settings: for Prava vs. Placebo Odds Ratio, 1 Rare Alleles / Prava vs. Placebo Odds Ratio, 2 Rare Alleles / Non-fatal MI (def & prob), n/total (%) / Fatal/Non-fatal MI (def & prob), n/total (%) / Fatal CHD/Definite Non-fatal MI, n/total (%) / Total Coronary Heart Disease Events, n/total (%) / Fatal/Non-fatal Atherosclerotic CV Disease, n/total (%) / Hosp. for Cardiovascular Disease, n/total (%) / Total Cardiovascular Disease Events, n/total (%) / Prava vs. Placebo Odds Ratio, 0 Rare Alleles: All Patients; for Non-fatal MI (def & prob), n/total (%) / Fatal/Non-fatal MI (def & prob), n/total (%) / Fatal CHD/Definite Non-fatal MI, n/total (%) / Total Coronary Heart Disease Events, n/total (%) / Fatal/Non-fatal Atherosclerotic CV Disease, n/total (%) / Hosp. for Cardiovascular Disease, n/total (%) / Total Cardiovascular Disease Events, n/total (%): Prava
Excerpt: In order to identify genetic markers associated with acute coronary events (e.g. MI, stroke, unstable angina, congestive heart failure, etc.) or response to statin treatment for the prevention of coronary events, samples from the Cholesterol and Recurrent Events (CARE) study (a randomized multicentral double-blinded trial on secondary prevention of acute coronary events with pravastatin) (Sacks et al., 1991, Am. J. Cardiol. 68: 1436-1446) were genotyped. A well-documented myocardial infarction (MI) was one of the enrollment criteria for entry into the CARE study. Patients were enrolled in the CARE trial from 80 participating study centers. […] Patients were randomized to receive either 40 mg of pravastatin once daily or a matching placebo. The primary endpoint of the trial was death from coronary heart disease and the median duration of follow-up was 5.0 years (range, 4.0 to 6.2 years). […] Secondary endpoints of other related cardiovascular or metabolic disease events, and changes in clinical variables were also recorded in pravastatin-treated and placebo groups. All individuals included in the study had signed a written informed consent form and the study protocol was approved by the respective Institutional Review Boards (IRBs).
For genotyping SNPs in CARE patient samples, DNA was extracted from blood samples using conventional DNA extraction methods such as the QIA-amp kit from Qiagen. Genotypes were obtained on an ABI PRISM® 7900HT Sequence Detection PCR system (Applied Biosystems, Foster City, Calif.) by kinetic allele-specific PCR, similar to the method described by Germer et al. (Germer S., Holland M. J., Higuchi R. 2000, Genome Res. 10: 258-266).
Statistical analysis for association of SNPs with pravastatin treatment in cardiovascular events prevention (Table 8) was carried out using an overall logistic regression model that included an intercept, a parameter for the effect of a genotype containing two rare alleles versus a genotype containing no rare alleles, a parameter for the effect of a genotype containing one rare allele versus a genotype containing no rare alleles, a parameter for the effect of use of pravastatin versus the use of placebo, and parameters for the interaction effects between SNP genotypes and pravastatin use. The test of the overall model is a chi-square test with two degrees of freedom for analyses containing all three genotypes, and one degree of freedom for analyses containing two genotypes.
Effect sizes were estimated through odds ratios (pravastatin group versus placebo) for carriers of each genotype (groups of 0, 1, and 2 minor allele carriers). The effect was considered to be significant if p-value for testing whether any of the interactions between SNP genotypes and pravastatin use were <0.05. […] Odds ratios less than one indicate that the specific SNP allele has a protective effect and odds ratios greater than one indicate that the specific SNP allele has an adverse effect.

[1] = IL1A hCV9546471, Total Mortality
[2] = IL1RN hCV8737990, 2 Rare Alleles, n/total 20/121
[3] = IL1RN hCV8737990, Fatal CHD/Definite Non-fatal MI
[4] = IL1RN hCV8737990, Fatal/Non-fatal Atherosclerotic CV Disease
[5] = IL1RN hCV8737990, Fatal/Non-fatal MI (def & prob)
[6] = IL1RN hCV8737990, Hosp. for Cardiovascular Disease
[7] = IL1RN hCV8737990, Non-fatal MI (def & prob)
[8] = IL1RN hCV8737990, Total Cardiovascular Disease Events
[9] = IL1RN hCV8737990, Total Coronary Heart Disease Events
[10] = IL6ST hCV16170435, 2 Rare Alleles, n/total 19/37
[11] = IL6ST hCV16170435, Hosp. for Cardiovascular Disease
[12] = IL6ST hCV16170435, Total Cardiovascular Disease Events
[13] = IL9 hCV3275199, All Patients, 0 Rare Alleles, Prava arm

For `CC[C@H](C)C(=O)O[C@H]1C[C@H](O)C=C2C=C[C@H](C)[C@H](CC[C@@H](O)C[C@@H](O)CC(=O)O)[C@H]21` [pravastatin], the “Prava vs. Placebo Odds Ratio, 1 Rare Alleles” value [1] was 0.60, the “Prava vs. Placebo Odds Ratio, 2 Rare Alleles” value [1] was 0.29 and the “Non-fatal MI (def & prob), n/total (%)” value (IL1RN hCV8737990, 0 Rare Alleles, n/total 68/809) was “(8.4%)”. For the same compound, the “Fatal/Non-fatal MI (def & prob), n/total (%)” value (“Fatal/Non-fatal MI … (%)” below) (IL1RN hCV8737990, 0 Rare Alleles, n/total 76/809) was “(9.4%)”, the “Fatal CHD/Definite Non-fatal MI, n/total (%)” value (IL1RN hCV8737990, 0 Rare Alleles, n/total 80/809) was “(9.9%)” and the “Total Coronary Heart Disease Events, n/total (%)” value (IL1RN hCV8737990, 0 Rare Alleles, n/total 228/809) was “(28.2%)”. For the same compound, the “Fatal/Non-fatal Atherosclerotic CV Disease, n/total (%)” value (IL1RN hCV8737990, 0 Rare Alleles, n/total 260/809) was “(32.1%)”, the “Hosp. for Cardiovascular Disease, n/total (%)” value (IL1RN hCV8737990, 0 Rare Alleles, n/total 315/809) was “(38.9%)” and the “Total Cardiovascular Disease Events, n/total (%)” value (IL1RN hCV8737990, 0 Rare Alleles, n/total 325/809) was “(40.2%)”. The “Fatal CHD/Definite Non-fatal MI, n/total (%)” value (IL1RN hCV8737990, 1 Rare Allele, n/total 44/585) was “(7.5%)”, the “Non-fatal MI (def & prob), n/total (%)” value (IL1RN hCV8737990, 1 Rare Allele, n/total 45/585) was “(7.7%)” and the “Fatal/Non-fatal MI … (%)” value (IL1RN hCV8737990, 1 Rare Allele, n/total 49/585) was “(8.4%)”. The “Total Coronary Heart Disease Events, n/total (%)” value (IL1RN hCV8737990, 1 Rare Allele, n/total 167/585) was “(28.5%)”, the “Fatal/Non-fatal Atherosclerotic CV Disease, n/total (%)” value (IL1RN hCV8737990, 1 Rare Allele, n/total 193/585) was “(33.0%)” and the “Hosp. for Cardiovascular Disease, n/total (%)” value (IL1RN hCV8737990, 1 Rare Allele, n/total 232/585) was “(39.7%)”. For the same compound, the “Total Cardiovascular Disease Events, n/total (%)” value (IL1RN hCV8737990, 1 Rare Allele, n/total 239/585) was “(40.9%)”, the “Fatal CHD/Definite Non-fatal MI, n/total (%)” value (IL1RN hCV8737990, 2 Rare Alleles, n/total 15/121) was “(12.4%)” and the “Fatal/Non-fatal MI … (%)” value [2] was “(16.5%)”. The “Non-fatal MI (def & prob), n/total (%)” value [2] was “(16.5%)”, the “Total Coronary Heart Disease Events, n/total (%)” value (IL1RN hCV8737990, 2 Rare Alleles, n/total 45/121) was “(37.2%)” and the “Fatal/Non-fatal Atherosclerotic CV Disease, n/total (%)” value (IL1RN hCV8737990, 2 Rare Alleles, n/total 51/121) was “(42.1%)”. The “Hosp. for Cardiovascular Disease, n/total (%)” value (IL1RN hCV8737990, 2 Rare Alleles, n/total 60/121) was “(49.6%)”, the “Total Cardiovascular Disease Events, n/total (%)” value (IL1RN hCV8737990, 2 Rare Alleles, n/total 61/121) was “(50.4%)” and the “Prava vs. Placebo Odds Ratio, 0 Rare Alleles” value [3] was 0.75. The “Prava vs. Placebo Odds Ratio, 1 Rare Alleles” value [3] was 0.52, the “Prava vs. Placebo Odds Ratio, 2 Rare Alleles” value [3] was 1.89 and the “Prava vs. Placebo Odds Ratio, 0 Rare Alleles” value [4] was 0.75. For the same compound, the “Prava vs. Placebo Odds Ratio, 1 Rare Alleles” value [4] was 0.66, the “Prava vs. Placebo Odds Ratio, 2 Rare Alleles” value [4] was 1.67 and the “Prava vs. Placebo Odds Ratio, 0 Rare Alleles” value [5] was 0.66. The “Prava vs. Placebo Odds Ratio, 1 Rare Alleles” value [5] was 0.51, the “Prava vs. Placebo Odds Ratio, 2 Rare Alleles” value [5] was 1.70 and the “Prava vs. Placebo Odds Ratio, 0 Rare Alleles” value [6] was 0.77. The “Prava vs. Placebo Odds Ratio, 1 Rare Alleles” value [6] was 0.64, the “Prava vs. Placebo Odds Ratio, 2 Rare Alleles” value [6] was 1.37 and the “Prava vs. Placebo Odds Ratio, 0 Rare Alleles” value [7] was 0.68. The “Prava vs. Placebo Odds Ratio, 1 Rare Alleles” value [7] was 0.52, the “Prava vs. Placebo Odds Ratio, 2 Rare Alleles” value [7] was 1.70 and the “Prava vs. Placebo Odds Ratio, 0 Rare Alleles” value [8] was 0.75. For the same compound, the “Prava vs. Placebo Odds Ratio, 1 Rare Alleles” value [8] was 0.65, the “Prava vs. Placebo Odds Ratio, 2 Rare Alleles” value [8] was 1.37 and the “Prava vs. Placebo Odds Ratio, 0 Rare Alleles” value [9] was 0.74. For the same compound, the “Prava vs. Placebo Odds Ratio, 1 Rare Alleles” value [9] was 0.67, the “Prava vs. Placebo Odds Ratio, 2 Rare Alleles” value [9] was 1.84 and the “Hosp. for Cardiovascular Disease, n/total (%)” value (IL6ST hCV16170435, 0 Rare Alleles, n/total 450/1131) was “(39.8%)”. The “Total Cardiovascular Disease Events, n/total (%)” value (IL6ST hCV16170435, 0 Rare Alleles, n/total 465/1131) was “(41.1%)”, the “Hosp. for Cardiovascular Disease, n/total (%)” value (IL6ST hCV16170435, 1 Rare Allele, n/total 139/340) was “(40.9%)” and the “Total Cardiovascular Disease Events, n/total (%)” value (IL6ST hCV16170435, 1 Rare Allele, n/total 142/340) was “(41.8%)”. The “Hosp. for Cardiovascular Disease, n/total (%)” value [10] was “(51.4%)”, the “Total Cardiovascular Disease Events, n/total (%)” value [10] was “(51.4%)” and the “Prava vs. Placebo Odds Ratio, 0 Rare Alleles” value [11] was 0.75. For the same compound, the “Prava vs. Placebo Odds Ratio, 1 Rare Alleles” value [11] was 0.72, the “Prava vs. Placebo Odds Ratio, 2 Rare Alleles” value [11] was 2.49 and the “Prava vs. Placebo Odds Ratio, 0 Rare Alleles” value [12] was 0.75. The “Prava vs. Placebo Odds Ratio, 1 Rare Alleles” value [12] was 0.69, the “Prava vs. Placebo Odds Ratio, 2 Rare Alleles” value [12] was 2.49 and the “Fatal/Nonfatal MI (def & prob), n/total (%)” value [13] was “(10.8%)”. For the same compound, the “MI (Fatal/Nonfatal), n/total (%)” value [13] was “(11.1%)”.
